Data set [1] in a line: Permeability of the blood-brain barrier by PAMPA (porcine brain lipid). The note with it: for Prediction of crossing the BBB: based on Ep correlated with 10 control drugs; for Papp at 2.5 h: pig, pH 7.4.
For data set [2], the target named is recombinant human enzyme TTBK1 (1-1321) (Homo sapiens (Human), UniProt Q5TCY1). Nature of the data set: Enzymatic inhibition of TTBK1 (33P-ATP radiometric kinase assay). The format is biochemical. The note with it: recombinant human TTBK1 (1-1321), 0.005 mM ATP, 30 minutes at room temperature. The protocol: (§1) The final reaction mixture contains the peptide at a concentration of 0.3 mM, 10 mM magnesium acetate and 0.005 mM [33P-γ-ATP](50-1000 cpm/pmol). The reaction mixture is incubated for 30 minutes at room temperature and the reaction is stopped after the addition of 5 μl of orthophosphoric acid.
Chain of recombinant human enzyme TTBK1 (1-1321) (Q5TCY1 whole entry): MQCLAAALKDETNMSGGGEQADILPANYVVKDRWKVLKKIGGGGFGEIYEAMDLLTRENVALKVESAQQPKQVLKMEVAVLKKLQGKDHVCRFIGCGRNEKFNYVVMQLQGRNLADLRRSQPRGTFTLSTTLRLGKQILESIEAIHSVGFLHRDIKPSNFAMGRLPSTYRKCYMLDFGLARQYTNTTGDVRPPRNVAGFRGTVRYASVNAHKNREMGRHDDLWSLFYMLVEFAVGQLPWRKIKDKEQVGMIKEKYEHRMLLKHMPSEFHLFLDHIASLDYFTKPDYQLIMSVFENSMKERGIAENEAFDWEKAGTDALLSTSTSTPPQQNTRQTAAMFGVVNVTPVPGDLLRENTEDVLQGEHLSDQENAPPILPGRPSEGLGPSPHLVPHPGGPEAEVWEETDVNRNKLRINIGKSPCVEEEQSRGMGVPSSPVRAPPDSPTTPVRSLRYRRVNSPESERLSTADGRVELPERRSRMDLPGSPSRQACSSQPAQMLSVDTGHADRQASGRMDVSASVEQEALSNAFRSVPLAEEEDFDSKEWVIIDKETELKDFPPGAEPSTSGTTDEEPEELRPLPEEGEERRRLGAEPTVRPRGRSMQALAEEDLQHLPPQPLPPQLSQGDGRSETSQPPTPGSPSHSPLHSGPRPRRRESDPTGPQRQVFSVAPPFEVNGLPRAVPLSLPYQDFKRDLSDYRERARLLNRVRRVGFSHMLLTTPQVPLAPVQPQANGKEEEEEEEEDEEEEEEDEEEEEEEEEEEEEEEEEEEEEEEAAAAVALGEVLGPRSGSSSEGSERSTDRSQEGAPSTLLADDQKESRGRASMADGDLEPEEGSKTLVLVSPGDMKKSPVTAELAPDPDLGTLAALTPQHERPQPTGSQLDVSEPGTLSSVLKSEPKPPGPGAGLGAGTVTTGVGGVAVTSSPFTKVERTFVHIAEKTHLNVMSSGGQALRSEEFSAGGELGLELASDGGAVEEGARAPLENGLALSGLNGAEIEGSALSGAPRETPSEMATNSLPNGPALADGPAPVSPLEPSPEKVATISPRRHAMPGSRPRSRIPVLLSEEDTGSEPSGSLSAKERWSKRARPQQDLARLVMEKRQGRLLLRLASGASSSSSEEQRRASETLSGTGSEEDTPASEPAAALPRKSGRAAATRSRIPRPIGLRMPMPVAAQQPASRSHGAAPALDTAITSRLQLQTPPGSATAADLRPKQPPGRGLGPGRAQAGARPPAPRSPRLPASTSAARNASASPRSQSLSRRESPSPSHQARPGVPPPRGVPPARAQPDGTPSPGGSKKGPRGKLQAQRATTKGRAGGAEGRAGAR

Data set [3] deals with recombinant human enzyme TTBK2(1-450) (Homo sapiens (Human), UniProt Q6IQ55). The experiment in a line: Enzymatic inhibition of TTBK2 (33P-ATP radiometric kinase assay). The class given is biochemical. The settings on record: recombinant human TTBK2(1-450), 0.005 mM ATP, 30 minutes at room temperature. The method, then:
as §1

The structures appear in SMILES notation.

Chain of recombinant human enzyme TTBK2(1-450) (Q6IQ55 1-450): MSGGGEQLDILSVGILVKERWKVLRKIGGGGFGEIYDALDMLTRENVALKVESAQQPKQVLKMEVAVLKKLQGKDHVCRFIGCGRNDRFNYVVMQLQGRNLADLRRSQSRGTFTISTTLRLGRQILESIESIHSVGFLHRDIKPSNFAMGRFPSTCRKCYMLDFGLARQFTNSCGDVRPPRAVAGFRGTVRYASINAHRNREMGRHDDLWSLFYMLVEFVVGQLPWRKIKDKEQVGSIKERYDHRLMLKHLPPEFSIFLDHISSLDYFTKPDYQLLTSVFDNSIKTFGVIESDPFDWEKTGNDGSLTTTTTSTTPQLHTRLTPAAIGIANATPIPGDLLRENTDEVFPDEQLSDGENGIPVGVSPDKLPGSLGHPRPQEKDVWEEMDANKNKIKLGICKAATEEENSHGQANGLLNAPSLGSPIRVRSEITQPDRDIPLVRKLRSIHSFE

Consider `c1ccc(Oc2ccc(Nc3ncnc4[nH]ccc34)cc2)cc1` [Compound 1, N-(4-phenoxyphenyl)-7H-pyrrolo[2,3-d]pyrimidin-4-amine], for which, in data set [1], the “Prediction of crossing the BBB” value is listed as “CNS+”; the Papp (as a rule, the rate of passage across a membrane or cell layer, normalised by area and donor concentration) at 2.5 h is 23.2 ± 1.4 ×10⁻⁶ cm/s.

Turning to `Clc1ccc(Oc2ccc(Nc3ncnc4[nH]ccc34)cc2)cc1` [Compound 2, N-[4-(4-chlorophenoxy)phenyl]-7H-pyrrolo[2,3-d]pyrimidin-4-amine], in data set [1], the “Prediction of crossing the BBB” value is “CNS+” and the apparent permeability (Papp) at 2.5 h was 11.5 ± 1 ×10⁻⁶ cm/s.

Take `Fc1ccc(Oc2ccc(Nc3ncnc4[nH]ccc34)cc2)cc1` [Compound 3, N-[4-(4-fluorophenoxy)phenyl]-7H-pyrrolo[2,3-d]pyrimidin-4-amine]: the IC50 (as a rule, the concentration that inhibits the measured activity by half) in data set [2] came out at 0.77 ± 0.14 µM. In addition, in data set [3], the IC50 worked out at 3.02 ± 0.82 µM. For the same molecule, in data set [1], the “Prediction of crossing the BBB” value is “CNS+” and the Papp at 2.5 h came to 15.6 ± 1.3 ×10⁻⁶ cm/s.

For `COc1ccc(Oc2ccc(Nc3ncnc4[nH]ccc34)cc2)cc1` [Compound 5, N-[4-(4-methoxyphenoxy)phenyl]-7H-pyrrolo[2,3-d]pyrimidin-4-amine], in data set [1], the “Prediction of crossing the BBB” value is on record as “CNS+” and the apparent permeability (Papp) at 2.5 h came out at 11.8 ± 0.3 ×10⁻⁶ cm/s.

Turning to `FC(F)(F)c1ccc(Oc2ccc(Nc3ncnc4[nH]ccc34)cc2)cc1` [Compound 6, N-[4-(4-trifluoromethylphenoxy)phenyl]-7H-pyrrolo[2,3-d]pyrimidin-4-amine], in data set [1], the “Prediction of crossing the BBB” value is listed as “CNS+” and the Papp at 2.5 h was 7.6 ± 1.4 ×10⁻⁶ cm/s.

With `Brc1ccc(Oc2ccc(Nc3ncnc4[nH]ccc34)cc2)cc1` [Compound 7, N-[4-(4-bromophenoxy)phenyl]-7H-pyrrolo[2,3-d]pyrimidin-4-amine], in data set [1], the “Prediction of crossing the BBB” value was “CNS+” and the Papp at 2.5 h was determined as 11 ± 1.2 ×10⁻⁶ cm/s.

On to `O=[N+]([O-])c1ccc(Oc2ccc(Nc3ncnc4[nH]ccc34)cc2)cc1` [Compound 8, N-[4-(4-nitrophenoxy)phenyl]-7H-pyrrolo[2,3-d]pyrimidin-4-amine], for which, in data set [1], the “Prediction of crossing the BBB” value is “CNS+” and the Papp at 2.5 h is 14.3 ± 1.1 ×10⁻⁶ cm/s.

Turning to `Cc1ccc(Oc2ccc(Nc3ncnc4[nH]ccc34)cc2)cc1` [Compound 10, N-[4-(4-methylphenoxy)phenyl]-7H-pyrrolo[2,3-d]pyrimidin-4-amine], in data set [1], the “Prediction of crossing the BBB” value is “CNS+” and the apparent permeability coefficient (Papp) at 2.5 h was found to be 18.7 ± 1.4 ×10⁻⁶ cm/s.

With `Cc1cccc(Oc2ccc(Nc3ncnc4[nH]ccc34)cc2)c1` [Compound 11, N-[4-(3-methylphenoxy)phenyl]-7H-pyrrolo[2,3-d]pyrimidin-4-amine], in data set [1], the “Prediction of crossing the BBB” value was “CNS+” and the Papp at 2.5 h was 14 ± 0.4 ×10⁻⁶ cm/s.

`Clc1cccc(Oc2ccc(Nc3ncnc4[nH]ccc34)cc2)c1` [Compound 12, N-[4-(3-chlorophenoxy)phenyl]-7H-pyrrolo[2,3-d]pyrimidin-4-amine]: the IC50 in data set [3] is more than 100 µM. In data set [1], the “Prediction of crossing the BBB” value is on record as “CNS+” and the apparent permeability coefficient (Papp) at 2.5 h turned out to be 8.4 ± 1.6 ×10⁻⁶ cm/s.

In the case of `FC(F)(F)c1cccc(Oc2ccc(Nc3ncnc4[nH]ccc34)cc2)c1` [Compound 13, N-[4-(3-trifluoromethylphenoxy)phenyl]-7H-pyrrolo[2,3-d]pyrimidin-4-amine], in data set [1], the “Prediction of crossing the BBB” value was “CNS+” and the apparent permeability (Papp) at 2.5 h came out at 6.8 ± 1.4 ×10⁻⁶ cm/s.

In the case of `Clc1ccccc1Oc1ccc(Nc2ncnc3[nH]ccc23)cc1` [Compound 14, N-[4-(2-chlorophenoxy)phenyl]-7H-pyrrolo[2,3-d]pyrimidin-4-amine], in data set [1], the “Prediction of crossing the BBB” value was “CNS+” and the apparent permeability coefficient (Papp) at 2.5 h was 9.7 ± 1 ×10⁻⁶ cm/s.

In the case of `Clc1ccc(Oc2ccc(Nc3ncnc4[nH]ccc34)cc2)c(Cl)c1` [Compound 16, N-[4-(2.4-chlorophenoxy)phenyl]-7H-pyrrolo[2,3-d]pyrimidin-4-amine], in data set [2], the IC50 was 2.3 ± 0.54 µM. Further, the IC50 in data set [3] was 5.72 ± 2.65 µM. For the same molecule, in data set [1], the “Prediction of crossing the BBB” value is recorded as “CNS+” and the apparent permeability coefficient (Papp) at 2.5 h worked out at 17.3 ± 0.1 ×10⁻⁶ cm/s.

Regarding `COc1cccc(Oc2ccc(Nc3ncnc4[nH]ccc34)cc2)c1` [Compound 17, N-[4-(3-methoxyphenoxy)phenyl]-7H-pyrrolo[2,3-d]pyrimidin-4-amine], in data set [1], the “Prediction of crossing the BBB” value was “CNS+” and the Papp at 2.5 h was 10.5 ± 0.7 ×10⁻⁶ cm/s.

With `Nc1nc(Nc2ccc(Oc3ccc(C(F)(F)F)cc3)cc2)c2cc[nH]c2n1` [Compound 18, N4-(4-(4-(trifluoromethyl)phenoxy)phenyl]-7H-pyrrolo[2,3-d]pyrimidine-2,4-diamine], in data set [2], the half-maximal inhibitory concentration (IC50) was 0.58 ± 0.08 µM. Also, in data set [3], the IC50 stood at 4.49 ± 1.16 µM. In data set [1], the “Prediction of crossing the BBB” value was “CNS+” and the Papp at 2.5 h was 7.5 ± 0.1 ×10⁻⁶ cm/s.

On to `Nc1nc(Nc2ccc(Oc3cccc(C(F)(F)F)c3)cc2)c2cc[nH]c2n1` [Compound 19, N4-(4-(3-(trifluoromethyl)phenoxy)phenyl]-7H-pyrrolo[2,3-d]pyrimidine-2,4-diamine], for which the concentration for half-maximal inhibition (IC50) in data set [2] worked out at 1.32 ± 0.04 µM. Further, in data set [3], the IC50 turned out to be 3.9 ± 0.48 µM. In addition, in data set [1], the “Prediction of crossing the BBB” value is on record as “CNS+” and the Papp at 2.5 h worked out at 7.7 ± 0.6 ×10⁻⁶ cm/s.

On to `Nc1nc(Nc2ccc(Oc3ccc(Cl)cc3)cc2)c2cc[nH]c2n1` [Compound 20, N4-(4-(4-chlorophenoxy)phenyl]-7H-pyrrolo[2,3-d]pyrimidine-2,4-diamine], for which, in data set [1], the “Prediction of crossing the BBB” value was “CNS+” and the Papp at 2.5 h was 9.7 ± 1 ×10⁻⁶ cm/s.

Turning to `Nc1nc(Nc2ccc(Oc3cccc(Cl)c3)cc2)c2cc[nH]c2n1` [Compound 21, N4-(4-(3-chlorophenoxy)phenyl)-7H-pyrrolo[2,3-d]pyrimidine-2,4-diamine], the concentration for half-maximal inhibition (IC50) in data set [2] came to 0.37 ± 0.12 µM. Also, in data set [3], the half-maximal inhibitory concentration (IC50) turned out to be 3.05 ± 0.07 µM. For the same molecule, in data set [1], the “Prediction of crossing the BBB” value was “CNS+” and the Papp at 2.5 h was determined as 14.1 ± 0.4 ×10⁻⁶ cm/s.

For the molecule `Nc1ccc(Sc2ccc(Nc3ncnc4[nH]ccc34)cc2)cc1` [Compound 23, N-[4-((4-aminophenyl)thio)phenyl]-7H-pyrrolo[2,3-d]pyrimidin-4-amine], in data set [1], the “Prediction of crossing the BBB” value is on record as “CNS+” and the Papp at 2.5 h amounted to 4.7 ± 0.5 ×10⁻⁶ cm/s.

Regarding `c1ccc(COc2ccc(Nc3ncnc4[nH]ccc34)cc2)cc1` [Compound 24, N-[4-(benzyloxy)phenyl]-7H-pyrrolo[2,3-d]pyrimidin-4-amine], in data set [1], the “Prediction of crossing the BBB” value was “CNS+” and the apparent permeability (Papp) at 2.5 h was determined as 18.3 ± 1.2 ×10⁻⁶ cm/s.

As to `O=C(c1ccccc1)c1ccc(Nc2ncnc3[nH]ccc23)cc1` [Compound 25, (4-((7H-pyrrolo[2,3-d]pyrimidin-4-yl)amino)phenyl](phenyl)methanone], in data set [1], the “Prediction of crossing the BBB” value is given as “CNS+” and the apparent permeability (Papp) at 2.5 h was 6.9 ± 0.6 ×10⁻⁶ cm/s.

Take `O=C(c1ccc(F)cc1)c1ccc(Nc2ncnc3[nH]ccc23)cc1` [Compound 26, (4-((7H-pyrrolo[2,3-d]pyrimidin-4-yl)amino)phenyl](4-fluorophenyl)methanone]: in data set [1], the “Prediction of crossing the BBB” value is “CNS+” and the apparent permeability coefficient (Papp) at 2.5 h came to 9.4 ± 0.4 ×10⁻⁶ cm/s.

These data come from US20250051335A1, “TAU-TUBULIN KINASE (TTBK) INHIBITOR COMPOUNDS” (CONSEJO SUPERIOR DE INVESTIGACIONES CIENTÍFICAS (CSIC), priority 2021, published 2025).
